Experimental data reported in patent publication US20240059671A1, “TYROSINE KINASE 2 (TYK2) DEGRADATION COMPOUNDS AND METHODS OF USE” (CULLGEN (SHANGHAI), INC., priority 2020, published 2024).

Molecular target: TYK2 (Homo sapiens, UniProt P29597)
Test: TYK2 protein degradation in MOLT-4 cells by immunoblotting
Type: cell-based
Set-up: endogenous in cells; host or cells: MOLT-4
Settings: MOLT-4 cells, 24 hours
Description: MOLT-4 cells were treated with compounds at 0.5 and 5 μM concentrations for 24 hours.
MOLT-4 cells were treated with CPD-038, CPD-039, and CPD-040 at 0.04, 0.2, 1, and 5 μM concentrations for 24 hours.
MOLT-4 or NOMO-1 cells were cultured at 37° C. with 5% CO2 in RPMI 1640 Medium supplemented with 10% fetal bovine serum. Cells were authenticated using the short tandem repeat (STR) assays. Mycoplasma test results were negative.
Cultured cells were washed with cold PBS once and lysed in cold RIPA buffer supplemented with protease inhibitors and phosphatase inhibitors (Beyotime Biotechnology). The solutions were then incubated at 4° C. for 30 minutes with gentle agitation to fully lyse cells. Cell lysates were centrifuged at 13,000 rpm for 10 minutes at 4° C. and pellets were discarded. Total protein concentrations in the lysates were determined by BCA assays (Beyotime Biotechnology). Cell lysates were mixed with Laemmli loading buffer to 1× and heated at 99° C. for 5 min. Proteins were resolved on SDS-PAGE and visualized by chemiluminescence. Images were taken by a ChemiDoc MP Imaging system (Bio-Rad). Protein bands were quantitated using the accompanied software provided by Bio-Rad.
The percentage of TYK2 protein degradation of each compound at 0.5 and 5 μM determined in MOLT-4 cells as described in Methods.

Sequence of TYK2 (P29597 whole entry): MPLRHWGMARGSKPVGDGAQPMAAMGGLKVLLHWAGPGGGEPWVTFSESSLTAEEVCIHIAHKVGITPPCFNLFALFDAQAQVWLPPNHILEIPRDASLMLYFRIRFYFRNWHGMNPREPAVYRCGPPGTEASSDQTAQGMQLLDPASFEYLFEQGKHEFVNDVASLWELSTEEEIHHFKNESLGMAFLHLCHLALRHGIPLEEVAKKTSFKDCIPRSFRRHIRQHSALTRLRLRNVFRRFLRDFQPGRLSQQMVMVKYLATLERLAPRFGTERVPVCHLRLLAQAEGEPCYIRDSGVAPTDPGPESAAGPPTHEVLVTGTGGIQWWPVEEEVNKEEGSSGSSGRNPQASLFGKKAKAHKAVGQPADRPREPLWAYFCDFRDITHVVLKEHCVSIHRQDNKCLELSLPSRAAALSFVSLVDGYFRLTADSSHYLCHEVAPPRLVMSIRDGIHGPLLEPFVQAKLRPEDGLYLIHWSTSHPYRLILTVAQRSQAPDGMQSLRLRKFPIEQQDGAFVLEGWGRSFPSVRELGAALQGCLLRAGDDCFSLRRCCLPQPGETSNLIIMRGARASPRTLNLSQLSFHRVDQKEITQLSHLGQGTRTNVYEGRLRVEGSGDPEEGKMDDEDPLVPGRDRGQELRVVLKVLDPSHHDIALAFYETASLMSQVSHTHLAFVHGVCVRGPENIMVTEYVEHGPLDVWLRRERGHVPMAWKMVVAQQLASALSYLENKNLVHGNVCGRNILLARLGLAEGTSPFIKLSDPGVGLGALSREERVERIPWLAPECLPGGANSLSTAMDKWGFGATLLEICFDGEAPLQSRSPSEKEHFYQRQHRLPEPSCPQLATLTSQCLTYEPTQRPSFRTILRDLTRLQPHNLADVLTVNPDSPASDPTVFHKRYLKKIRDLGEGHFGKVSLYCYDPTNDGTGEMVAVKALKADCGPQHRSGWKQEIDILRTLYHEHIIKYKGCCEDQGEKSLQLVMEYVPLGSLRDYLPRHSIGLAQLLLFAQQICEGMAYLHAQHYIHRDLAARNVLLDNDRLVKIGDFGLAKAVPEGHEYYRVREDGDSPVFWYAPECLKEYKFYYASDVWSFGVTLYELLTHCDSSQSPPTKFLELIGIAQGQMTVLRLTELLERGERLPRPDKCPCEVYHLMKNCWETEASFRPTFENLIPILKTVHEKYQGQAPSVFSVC

For `CNC(=O)c1nnc(NC(=O)CNC(=O)CCOCCC(=O)N[C@H](C(=O)N2C[C@H](O)C[C@H]2C(=O)NCc2ccc(-c3scnc3C)cc2)C(C)(C)C)cc1Nc1cccc(-c2ncn(C)n2)c1OC` [CPD-026, 6-(2-(3-(3-(((S)-1-((2S,4R)-4-Hydroxy-2-((4-(4-methylthiazol-5-yl)benzyl)carbamoyl)pyrrolidin-1-yl)-3,3-dimethyl-1-oxobutan-2-yl)amino)-3-oxopropoxy)propanamido)acetamido)-4-((2-methoxy-3-(1-methyl-1H-1,2,4-triazol-3-yl)phenyl)amino)-N-methylpyridazine-3-carboxamide], the “TYK2 Degradation (0.5 μM)” value was at most 20% and the “TYK2 Degradation (5 μM)” value was at most 20%.

With `CNC(=O)c1nnc(Nc2ccc(N3CCN(C(=O)CCCCCCC(=O)N[C@H](C(=O)N4C[C@H](O)C[C@H]4C(=O)NCc4ccc(-c5scnc5C)cc4)C(C)(C)C)CC3)cn2)cc1Nc1cccc(-c2ncn(C)n2)c1OC` [CPD-100, 6-((5-(4-(8-(((S)-1-((2S,4R)-4-hydroxy-2-((4-(4-methylthiazol-5-yl)benzyl)carbamoyl)pyrrolidin-1-yl)-3,3-dimethyl-1-oxobutan-2-yl)amino)-8-oxooctanoyl)piperazin-1-yl)pyridin-2-yl)amino)-4-((2-methoxy-3-(1-methyl-1H-1,2,4-triazol-3-yl)phenyl)amino)-N-methylpyridazine-3-carboxamide] the “TYK2 Degradation (MOLT-4, 0.5 μM)” value was “A (A: ≥60% TYK2 degradation)” and the “TYK2 Degradation (MOLT-4, 5 μM)” value was “B (B: <60% TYK2 degradation, and >20% TYK2 degradation)”.

In the case of `CNC(=O)c1nnc(NC(=O)C2CC2)cc1Nc1cccc(-c2ncn(CCNC(=O)CCOCCOCCOCCOCCNc3cccc4c3C(=O)N(C3CCC(=O)NC3=O)C4=O)n2)c1OC` (stereo not drawn) [CPD-011, 6-(Cyclopropanecarboxamido)-4-((3-(1-(1-((2-(2,6-dioxopiperidin-3-yl)-1,3-dioxoisoindolin-4-yl)amino)-15-oxo-3,6,9,12-tetraoxa-16-azaoctadecan-18-yl)-1H-1,2,4-triazol-3-yl)-2-methoxyphenyl)amino)-N-methylpyridazine-3-carboxamide], the “TYK2 Degradation (0.5 μM)” value is reported as at most 20%.

For `CNC(=O)c1nnc(NC(=O)CNC(=O)COCC(=O)N[C@H](C(=O)N2C[C@H](O)C[C@H]2C(=O)NCc2ccc(-c3scnc3C)cc2)C(C)(C)C)cc1Nc1cccc(-c2ncn(C)n2)c1OC` [CPD-025, 6-(2-(2-(2-(((S)-1-((2S,4R)-4-Hydroxy-2-((4-(4-methylthiazol-5-yl)benzyl)carbamoyl)pyrrolidin-1-yl)-3,3-dimethyl-1-oxobutan-2-yl)amino)-2-oxoethoxy)acetamido)acetamido)-4-((2-methoxy-3-(1-methyl-1H-1,2,4-triazol-3-yl)phenyl)amino)-N-methylpyridazine-3-carboxamide], the “TYK2 Degradation (0.5 μM)” value was at most 20% and the “TYK2 Degradation (5 μM)” value was at most 20%.

For `CNC(=O)c1nnc(NC(=O)C2CC2)cc1Nc1cccc(-c2ncn(CCNC(=O)CCCCCCCC(=O)N[C@H](C(=O)N3C[C@H](O)C[C@H]3C(=O)NCc3ccc(-c4scnc4C)cc3)C(C)(C)C)n2)c1OC` [CPD-080, N^1-(2-(3-(3-((6-(Cyclopropanecarboxamido)-3-(methylcarbamoyl)pyridazin-4-yl)amino)-2-methoxyphenyl)-1H-1,2,4-triazol-1-yl)ethyl)-N^9-((S)-1-((2S,4R)-4-hydroxy-2-((4-(4-methylthiazol-5-yl)benzyl)carbamoyl)pyrrolidin-1-yl)-3,3-dimethyl-1-oxobutan-2-yl)nonanediamide], the “TYK2 Degradation (MOLT-4, 0.5 μM)” value was “C (C: ≤20% TYK2 degradation)” and the “TYK2 Degradation (MOLT-4, 5 μM)” value was “C (C: ≤20% TYK2 degradation)”.

In the case of `CNC(=O)c1nnc(NC(=O)CNC(=O)CCCCCCCNc2cccc3c2C(=O)N(C2CCC(=O)NC2=O)C3=O)cc1Nc1cccc(-c2ncn(C)n2)c1OC` (stereo not drawn) [CPD-048, 6-(2-(8-((2-(2,6-Dioxopiperidin-3-yl)-1,3-dioxoisoindolin-4-yl)amino)octanamido)acetamido)-4-((2-methoxy-3-(1-methyl-1H-1,2,4-triazol-3-yl)phenyl)amino)-N-methylpyridazine-3-carboxamide], the “TYK2 Degradation (0.5 μM)” value is reported as 50% and the “TYK2 Degradation (5 μM)” value is reported as at most 20%.

In the case of `CNC(=O)c1nnc(NC(=O)CNC(=O)CCCCCCOc2cc(-c3scnc3C)ccc2CNC(=O)[C@@H]2C[C@@H](O)CN2C(=O)[C@@H](NC(=O)C2(F)CC2)C(C)(C)C)cc1Nc1cccc(-c2ncn(C)n2)c1OC` [CPD-106, 6-(2-(7-(2-(((2S,4R)-1-((S)-2-(1-Fluorocyclopropane-1-carboxamido)-3,3-dimethylbutanoyl)-4-hydroxypyrrolidine-2-carboxamido)methyl)-5-(4-methylthiazol-5-yl)phenoxy)heptanamido)acetamido)-4-((2-methoxy-3-(1-methyl-1H-1,2,4-triazol-3-yl)phenyl)amino)-N-methylpyridazine-3-carboxamide], the “TYK2 Degradation (MOLT-4, 0.5 μM)” value is reported as “C (C: ≤20% TYK2 degradation)” and the “TYK2 Degradation (MOLT-4, 5 μM)” value is reported as “C (C: ≤20% TYK2 degradation)”.

`CNC(=O)c1nnc(NC(=O)CNC(=O)CCOCCOCCNc2ccc3c(c2)C(=O)N(C2CCC(=O)NC2=O)C3=O)cc1Nc1cccc(-c2ncn(C)n2)c1OC` (stereo not drawn) [CPD-062, 6-(2-(3-(2-(2-((2-(2,6-Dioxopiperidin-3-yl)-1,3-dioxoisoindolin-5-yl)amino)ethoxy)ethoxy)propanamido)acetamido)-4-((2-methoxy-3-(1-methyl-1H-1,2,4-triazol-3-yl)phenyl)amino)-N-methylpyridazine-3-carboxamide] was tested, and the “TYK2 Degradation (0.5 μM)” value was at most 20% and the “TYK2 Degradation (5 μM)” value was at most 20%.

`CNC(=O)c1nnc(NC(=O)CNC(=O)CCCCCCCC(=O)N[C@H](C(=O)N2C[C@H](O)C[C@H]2C(=O)N[C@@H](C)c2ccc(-c3scnc3C)cc2)C(C)(C)C)cc1Nc1cccc(-c2ncn(C)n2)c1OC` [CPD-084, N1-((S)-1-((2S,4R)-4-hydroxy-2-(((S)-1-(4-(4-methylthiazol-5-yl)phenyl)ethyl)carbamoyl)pyrrolidin-1-yl)-3,3-dimethyl-1-oxobutan-2-yl)-N9-(2-((5-((2-methoxy-3-(1-methyl-1H-1,2,4-triazol-3-yl)phenyl)amino)-6-(methylcarbamoyl)pyridazin-3-yl)amino)-2-oxoethyl)nonanediamide] was tested, and the “TYK2 Degradation (MOLT-4, 0.5 μM)” value was “A (A: ≥60% TYK2 degradation)” and the “TYK2 Degradation (MOLT-4, 5 μM)” value was “A (A: ≥60% TYK2 degradation)”.

For `CNC(=O)c1nnc(NC(=O)CNC(=O)CCCCCNC(=O)C[C@H](NC(=O)[C@@H]2C[C@@H](O)CN2C(=O)[C@@H](NC(=O)C2(F)CC2)C(C)(C)C)c2ccc(-c3scnc3C)cc2)cc1Nc1cccc(-c2ncn(C)n2)c1OC` [CPD-090, 6-(2-(6-((S)-3-((2S,4R)-1-((S)-2-(1-Fluorocyclopropane-1-carboxamido)-3,3-dimethylbutanoyl)-4-hydroxypyrrolidine-2-carboxamido)-3-(4-(4-methylthiazol-5-yl)phenyl)propanamido)hexanamido)acetamido)-4-((2-methoxy-3-(1-methyl-1H-1,2,4-triazol-3-yl)phenyl)amino)-N-methylpyridazine-3-carboxamide], the “TYK2 Degradation (MOLT-4, 0.5 μM)” value was “C (C: ≤20% TYK2 degradation)” and the “TYK2 Degradation (MOLT-4, 5 μM)” value was “C (C: ≤20% TYK2 degradation)”.

In the case of `CNC(=O)c1nnc(NC(=O)CNC(=O)CCCCCCCCCCOc2cc(-c3scnc3C)ccc2CNC(=O)[C@@H]2C[C@@H](O)CN2C(=O)[C@@H](NC(=O)C2(F)CC2)C(C)(C)C)cc1Nc1cccc(-c2ncn(C)n2)c1OC` [CPD-110, 6-(2-(11-(2-(((2S,4R)-1-((S)-2-(1-fluorocyclopropane-1-carboxamido)-3,3-dimethylbutanoyl)-4-hydroxypyrrolidine-2-carboxamido)methyl)-5-(4-methylthiazol-5-yl)phenoxy)undecanamido)acetamido)-4-((2-methoxy-3-(1-methyl-1H-1,2,4-triazol-3-yl)phenyl)amino)-N-methylpyridazine-3-carboxamide], the “TYK2 Degradation (MOLT-4, 0.5 μM)” value is reported as “A (A: ≥60% TYK2 degradation)” and the “TYK2 Degradation (MOLT-4, 5 μM)” value is reported as “A (A: ≥60% TYK2 degradation)”.

For `CNC(=O)c1nnc(NC(=O)C2CC2)cc1Nc1cccc(-c2ncn(CCNC(=O)CCNc3cccc4c3C(=O)N(C3CCC(=O)NC3=O)C4=O)n2)c1OC` (stereo not drawn) [CPD-002, 6-(Cyclopropanecarboxamido)-4-((3-(1-(2-(3-((2-(2,6-dioxopiperidin-3-yl)-1,3-dioxoisoindolin-4-yl)amino)propanamido)ethyl)-1H-1,2,4-triazol-3-yl)-2-methoxyphenyl)amino)-N-methylpyridazine-3-carboxamide], the “TYK2 Degradation (0.5 μM)” value was at most 20%.

For `CNC(=O)c1nnc(NC(=O)CNC(=O)CCCCNc2cccc3c2C(=O)N(C2CCC(=O)NC2=O)C3=O)cc1Nc1cccc(-c2ncn(C)n2)c1OC` (stereo not drawn) [CPD-045, 6-(2-(5-((2-(2,6-Dioxopiperidin-3-yl)-1,3-dioxoisoindolin-4-yl)amino)pentanamido)acetamido)-4-((2-methoxy-3-(1-methyl-1H-1,2,4-triazol-3-yl)phenyl)amino)-N-methylpyridazine-3-carboxamide], the “TYK2 Degradation (0.5 μM)” value was 40% and the “TYK2 Degradation (5 μM)” value was at most 20%.
